{"source": "patent US6432426B1", "about": "“Non-staining topical iodine composition and method” (Symbollon Corporation, priority 1998, dated 2002)", "key": {"[1]": {"test_system": "Human Skin", "experiment": "Diffusion of iodine from skin post application (DPD absorbance at 553 nm)", "format": "in vivo", "conditions": "average of three subjects", "protocol": "2. Three samples from Example 1 were used to confirm that molecular iodine will penetrate into skin and remain in the skin for a prolonged time period.\nApplication of the iodine solution onto skin was performed as described in Example 1 above with the exception that the contacted area was flushed with water for 15 seconds immediately after following contact between the iodine solution and skin. The method of Goftardi (J. Hosp. Infect., 1995, Vol 29, pages 9-18) were used to measure the amount of molecular iodine coming out of the skin. Briefly, 1 mL of a diethyl-p-phenylenediamine (DPD) solution was placed concentrically onto the exposed area of skin and left there for 30 seconds. This solution was then transferred to a 1 cm cuvette and the absorbance was read at 553 nm. Control values were obtained by contacting the DPD solution to an unexposed area on the forearm of each subject. Control values were subtracted from the experimental measurements. Iodine solutions containing 50 ppm, 150 ppm and 300 ppm of molecular iodine were used for this example. Two measurements were made (one measurement of each forearm) at each iodine concentration on all three subjects."}, "[2]": {"test_system": "Staphylococcus aureus", "experiment": "Residual biocidal effect of skin associated iodine, colony counts from inoculated treated skin", "format": "in vivo", "conditions": "320 ppm saturated molecular iodine solution, 30 second contact; inoculated two hours after contact, sampled ninety minutes after inoculation", "protocol": "5. […] […] […] […] The samples were contacted with the arm for 30 seconds. After contact the treated arm was flushed with water for 15 seconds and dried.\n[…] Two hours after contact each area was inoculated with […] of a 1:100 dilution of a 48 hour soy-trypticase culture of Staphylococcus aureus. Ninety minutes after inoculation the mouths of sterile 25 mL flasks filled with 2 mL of soy-trypticase with 2% Tween 80 were placed over the marked skin areas. The flasks were gently shaken for 1 minute and a colony count was performed on blood agar plates after incubation at 37° C. for 48 hours. The residual biocidal effect from skin associated molecular iodine was determined by subtracting the log of the colony counts from the areas of skin that were contacted with iodine from the controls (log colony count from untreated skin). The average difference in colony counts between treated and untreated skin was 2.4 logs."}, "[3]": {"test_system": "Staphylococcus epidermidis", "experiment": "Residual biocidal effect of skin associated iodine, repeated experiment", "format": "in vivo", "conditions": "saturated molecular iodine solution (320 ppm)"}, "[4]": {"test_system": "Streptococcus agalactica", "experiment": "Residual biocidal effect of skin associated iodine, repeated experiment", "format": "in vivo", "conditions": "saturated molecular iodine solution (320 ppm)"}, "[5]": {"test_system": "Candida albicans", "experiment": "Residual biocidal effect of skin associated iodine, repeated experiment", "format": "in vivo", "conditions": "saturated molecular iodine solution (320 ppm)"}, "[6]": {"test_system": "Salmonella typhimurium", "experiment": "Residual biocidal effect of skin associated iodine, repeated experiment", "format": "in vivo", "conditions": "saturated molecular iodine solution (320 ppm)"}, "[7]": {"test_system": "Pseudomonas aeruginosa", "experiment": "Residual biocidal effect of skin associated iodine, repeated experiment", "format": "in vivo", "conditions": "saturated molecular iodine solution (320 ppm)"}, "[8]": {"experiment": "Concentration of molecular iodine in a saturated solution", "format": "physicochemical", "conditions": "pH of 4.5", "protocol": "5. […] A saturated solution of molecular iodine was prepared at a pH of 4.5. The concentration of molecular iodine was measured to be 320 ppm and the concentration of triiodide was determined to be less than 5 ppm. A 1.0 dram vial containing four mL of the saturated iodine solution was contacted with the forearm of a subject and then the forearm was inverted to initiate contact of the sample with the molecular iodine solution. The samples were contacted with the arm for 30 seconds. After contact the treated arm was flushed with water for 15 seconds and dried."}, "[9]": {"experiment": "Sub dermal penetration of iodine measured by iodine analysis of 24 hour urine", "format": "in vivo, human", "conditions": "300 ppm molecular iodine applied to skin 4 times over six hours; lines = Subjects 1-3 (prior: 95, 114, 106); listed as I2", "protocol": "11. The 300 ppm samples of molecular iodine described in Example 1 was used to confirm that molecular iodine will penetrate into skin and permeate into the skin to provide sub dermal tissue penetration.\nApplication of the iodine solution onto skin was performed as described in Example 1 above with two exceptions: (1) the contacted area was flushed with water for 15 seconds immediately after following contact between the iodine solution and skin and (2) the sample was applied to the skin once every 2 hours over a six hour time period (4 applications).\nTwenty-four hour urine samples were collected on three subjects for the day immediately prior to the experiment. […] The urine samples were analyzed to determine their total iodine content. Urinary concentrations of total iodide were measured by utilizing the reduction-oxidation reaction between ceric ioni and arsenite ion catalyzed by iodide. […] Arsenious acid was added, the samples were transferred to an autoanalyzer, ceric ammonium sulfate was added “on line” and the optical transmission was measured spectrophometrically at 420 nm. […] If the yellow color fades to colorless (clear) within 1.5 minutes, the iodine content is too high to be measured. […] The % transmission was recorded and the concentration of iodine in each sample was determined by comparison to the standards."}}, "note": "Several values for one entry are separate records, joined by “and”; a condition that tells them apart may be missing. Equal values may be shown once."}
{"smiles": "II", "note": "[Molecular Iodine, molecular iodine]", "values": [{"measurement": "Mean absorbance (DPD, 553 nm), iodine diffusing from skin", "setting": "[1]; 50 ppm I2, 3 minutes after application", "result": 0.06}, {"measurement": "Mean absorbance (DPD, 553 nm), iodine diffusing from skin", "setting": "[1]; 50 ppm I2, 6 minutes after application", "result": 0.17}, {"measurement": "Mean absorbance (DPD, 553 nm), iodine diffusing from skin", "setting": "[1]; 50 ppm I2, 20 minutes after application", "result": 0.19}, {"measurement": "Mean absorbance (DPD, 553 nm), iodine diffusing from skin", "setting": "[1]; 50 ppm I2, 60 minutes after application", "result": 0.18}, {"measurement": "Mean absorbance (DPD, 553 nm), iodine diffusing from skin", "setting": "[1]; 50 ppm I2, 90 minutes after application", "result": 0.13}, {"measurement": "Mean absorbance (DPD, 553 nm), iodine diffusing from skin", "setting": "[1]; 50 ppm I2, 120 minutes after application", "result": 0.08}, {"measurement": "Mean absorbance (DPD, 553 nm), iodine diffusing from skin", "setting": "[1]; 50 ppm I2, 240 minutes after application", "result": 0.06}, {"measurement": "Mean absorbance (DPD, 553 nm), iodine diffusing from skin", "setting": "[1]; 50 ppm I2, 660 minutes after application", "result": 0.02}, {"measurement": "Mean absorbance (DPD, 553 nm), iodine diffusing from skin", "setting": "[1]; 150 ppm I2, 3 minutes after application", "result": 0.32}, {"measurement": "Mean absorbance (DPD, 553 nm), iodine diffusing from skin", "setting": "[1]; 150 ppm I2, 6 minutes after application", "result": 0.31}, {"measurement": "Mean absorbance (DPD, 553 nm), iodine diffusing from skin", "setting": "[1]; 150 ppm I2, 20 minutes after application", "result": 0.48}, {"measurement": "Mean absorbance (DPD, 553 nm), iodine diffusing from skin", "setting": "[1]; 150 ppm I2, 60 minutes after application", "result": 0.53}, {"measurement": "Mean absorbance (DPD, 553 nm), iodine diffusing from skin", "setting": "[1]; 150 ppm I2, 90 minutes after application", "result": 0.50}, {"measurement": "Mean absorbance (DPD, 553 nm), iodine diffusing from skin", "setting": "[1]; 150 ppm I2, 120 minutes after application", "result": 0.46}, {"measurement": "Mean absorbance (DPD, 553 nm), iodine diffusing from skin", "setting": "[1]; 150 ppm I2, 240 minutes after application", "result": 0.36}, {"measurement": "Mean absorbance (DPD, 553 nm), iodine diffusing from skin", "setting": "[1]; 150 ppm I2, 660 minutes after application", "result": 0.20}, {"measurement": "Mean absorbance (DPD, 553 nm), iodine diffusing from skin", "setting": "[1]; 300 ppm I2, 3 minutes after application", "result": 0.78}, {"measurement": "Mean absorbance (DPD, 553 nm), iodine diffusing from skin", "setting": "[1]; 300 ppm I2, 6 minutes after application", "result": 0.65}, {"measurement": "Mean absorbance (DPD, 553 nm), iodine diffusing from skin", "setting": "[1]; 300 ppm I2, 20 minutes after application", "result": 1.11}, {"measurement": "Mean absorbance (DPD, 553 nm), iodine diffusing from skin", "setting": "[1]; 300 ppm I2, 60 minutes after application", "result": 0.93}, {"measurement": "Mean absorbance (DPD, 553 nm), iodine diffusing from skin", "setting": "[1]; 300 ppm I2, 90 minutes after application", "result": 0.77}, {"measurement": "Mean absorbance (DPD, 553 nm), iodine diffusing from skin", "setting": "[1]; 300 ppm I2, 120 minutes after application", "result": 0.64}, {"measurement": "Mean absorbance (DPD, 553 nm), iodine diffusing from skin", "setting": "[1]; 300 ppm I2, 240 minutes after application", "result": 0.57}, {"measurement": "Mean absorbance (DPD, 553 nm), iodine diffusing from skin", "setting": "[1]; 300 ppm I2, 660 minutes after application", "result": 0.40}, {"measurement": "Average difference in colony counts between treated and untreated skin", "setting": "[2]", "result": 2.4, "unit": "logs"}, {"measurement": "Residual biocidal efficacy on skin", "setting": "[3]", "result": "Efficacy was also demonstrated"}, {"measurement": "Residual biocidal efficacy on skin", "setting": "[4]", "result": "Efficacy was also demonstrated"}, {"measurement": "Residual biocidal efficacy on skin", "setting": "[5]", "result": "Efficacy was also demonstrated"}, {"measurement": "Residual biocidal efficacy on skin", "setting": "[6]", "result": "Efficacy was also demonstrated"}, {"measurement": "Log reduction (smallest observed)", "setting": "[7]", "result": 0.5, "unit": "logs"}, {"measurement": "Concentration of molecular iodine in saturated solution", "setting": "[8]", "result": 320, "unit": "ppm"}, {"measurement": "24 Hour Urine iodine, Post I2 Application", "setting": "[9]", "result": "647 ug iodine and 846 ug iodine and 741 ug iodine"}]}
